For 37 compounds, IC50 results are on record in patent publication US20170320870A1 (Medical Research Council Technology, priority 2009, published 2017).

The target in the assay is T1, LRRK2 wild type (recombinant human, catalytic domain amino acids 970-2527, GST-tagged) (Homo sapiens, UniProt Q5S007).
T1 construct: The wild type used was recombinant human, catalytic domain (amino acids 970-2527) GST-tagged, expressed in insect cells; GST; purchased Invitrogen Corporation PV4873; host or cells: insect cells
T1 sequence (Q5S007 970-2527): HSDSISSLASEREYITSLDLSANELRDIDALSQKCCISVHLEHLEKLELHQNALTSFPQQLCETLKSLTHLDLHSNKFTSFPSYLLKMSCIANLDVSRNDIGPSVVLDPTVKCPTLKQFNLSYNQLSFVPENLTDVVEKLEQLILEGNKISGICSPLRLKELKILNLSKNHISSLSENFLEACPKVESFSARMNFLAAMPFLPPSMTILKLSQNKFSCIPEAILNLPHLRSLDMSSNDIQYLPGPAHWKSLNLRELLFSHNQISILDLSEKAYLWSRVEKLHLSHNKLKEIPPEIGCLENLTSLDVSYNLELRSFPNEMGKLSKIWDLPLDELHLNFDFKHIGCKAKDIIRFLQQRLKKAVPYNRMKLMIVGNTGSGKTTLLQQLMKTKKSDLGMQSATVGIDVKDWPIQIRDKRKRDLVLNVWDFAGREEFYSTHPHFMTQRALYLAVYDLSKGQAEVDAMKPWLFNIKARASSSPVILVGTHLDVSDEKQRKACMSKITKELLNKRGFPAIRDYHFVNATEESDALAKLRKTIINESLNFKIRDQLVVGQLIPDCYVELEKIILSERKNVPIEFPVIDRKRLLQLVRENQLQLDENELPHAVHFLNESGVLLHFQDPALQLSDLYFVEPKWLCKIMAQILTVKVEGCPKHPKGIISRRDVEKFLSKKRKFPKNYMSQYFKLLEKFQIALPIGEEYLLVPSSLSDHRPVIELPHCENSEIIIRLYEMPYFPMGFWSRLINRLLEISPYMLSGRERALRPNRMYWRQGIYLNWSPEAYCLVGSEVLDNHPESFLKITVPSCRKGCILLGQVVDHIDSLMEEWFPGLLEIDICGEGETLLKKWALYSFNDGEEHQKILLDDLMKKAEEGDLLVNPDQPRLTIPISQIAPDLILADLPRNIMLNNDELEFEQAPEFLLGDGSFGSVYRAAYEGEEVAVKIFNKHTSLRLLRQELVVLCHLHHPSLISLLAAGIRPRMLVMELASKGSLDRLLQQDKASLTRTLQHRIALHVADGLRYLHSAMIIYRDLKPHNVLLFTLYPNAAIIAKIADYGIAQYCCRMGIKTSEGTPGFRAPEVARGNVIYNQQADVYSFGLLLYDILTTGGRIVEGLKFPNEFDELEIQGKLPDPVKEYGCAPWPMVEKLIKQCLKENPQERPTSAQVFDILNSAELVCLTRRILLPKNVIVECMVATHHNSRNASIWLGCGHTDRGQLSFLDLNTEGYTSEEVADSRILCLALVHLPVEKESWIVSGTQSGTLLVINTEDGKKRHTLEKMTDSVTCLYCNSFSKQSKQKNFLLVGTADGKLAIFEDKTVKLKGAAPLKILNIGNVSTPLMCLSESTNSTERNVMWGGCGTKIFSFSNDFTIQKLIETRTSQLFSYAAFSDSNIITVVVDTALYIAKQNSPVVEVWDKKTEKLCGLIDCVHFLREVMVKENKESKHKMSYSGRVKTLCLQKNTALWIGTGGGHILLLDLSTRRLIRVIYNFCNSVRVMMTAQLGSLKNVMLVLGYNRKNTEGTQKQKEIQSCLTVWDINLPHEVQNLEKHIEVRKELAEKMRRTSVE
In words: LRRK2 wild type protein kinase assay ([γ-33P] ATP, peptide substrate […]), IC50. It counts as biochemical. The conditions noted are these: LRRK2 (variant not given); read-out: Potency score, LRRK2 IC50. From the text: All LRRK2 protein kinases were of human origin and were sourced from Invitrogen Corporation (Carlsbad, Calif. 92008 USA) unless otherwise indicated. The active mutant used was recombinant human, catalytic domain (amino acids 970-2527) containing a G2019S mutation, GST-tagged, expressed in insect cells (Invitrogen Cat#PV4881). The wild type used was recombinant human, catalytic domain (amino acids 970-2527) GST-tagged, expressed in insect cells (Invitrogen Cat#PV4873). The kinase dead mutant used was recombinant human, catalytic domain (amino acids 970-2527) containing a D1994A mutation, GST-tagged, expressed in insect cells (Invitrogen Cat#PM4041AE). No special measures were taken to activate any of the kinases.
All assays were carried out at room temperature (˜21° C.) and were linear with respect to time and enzyme concentration under the conditions used. Assays were performed for 180 min in a 96 well format. LRRK2 was present at a concentration of approximately 5 nM. The enzyme was diluted and assayed in 50 mM Tris-HCl pH7.5, 0.1 mM EGTA, 1 mM DTT and 10 mM MgCl2. The concentration of magnesium chloride in the assay was 10 mM. The [γ-33P] […] The peptide substrate in the assay was […] at 100 μM.
The assays were initiated with Mg/ATP and stopped by the addition of 25 μl/well 50% orthophosphoric acid. Reactions were harvested onto Whatman P81 Unifilter Plates (Fisher Scientific. Loughborough, LE115RG, UK. Cat# FDU-105-020U) using a Tomtec harvester. (Tomtec Hamden, Conn. 06514. USA) Plates were counted using a Perkin Elmer Top Count NX7. (Perkin Elmer, Shelton Conn. 06484-4794 USA)
IC50 values of inhibitors were determined after carrying out assays at 10 different concentrations of each compound in duplicate.
On to `COc1ccccc1CCNc1nccc2[nH]nc(C)c12` [Example 339, [2-(2-Methoxy-phenyl)-ethyl]-(3-methyl-1H-pyrazolo[4,3-c]pyridin-4-yl)-amine], for which the IC50 was 1 to 10 µM.

For `Cc1n[nH]c2ccnc(Nc3cccc(N(C)C)c3)c12` [Example 92, N,N-Dimethyl-N′-(3-methyl-1H-pyrazolo[4,3-c]pyridin-4-yl)-benzene-1,3-diamine], the IC50 lay within 1 to 10 µM.

For the compound `O=C(Nc1cccc(CCc2n[nH]c3ccnc(NC4CCCCC4)c23)c1)c1cocn1` [Example 228, Oxazole-4-carboxylic acid {3-[2-(4-cyclohexylamino-1H-pyrazolo[4,3-c]pyridin-3-yl)-ethyl]-phenyl}-amide], the IC50 was below 0.1 µM.

On to `c1cc2[nH]nc(-c3ccoc3)c2c(OC2CCCCC2)n1` [Example 236, 4-Cyclohexyloxy-3-furan-3-yl-1H-pyrazolo[4,3-c]pyridine], for which the IC50 is below 0.1 µM.

On to `Cc1n[nH]c2ccnc(O[C@@H](C)C(C)C)c12` [Example 292, 4-((S)-1,2-Dimethyl-propoxy)-3-methyl-1H-pyrazolo [4,3-c]pyridine], for which the IC50 lay within 0.1 to 1 µM.

In the case of `CCOc1ccccc1Nc1nccc2[nH]nc(C)c12` [Example 68, (2-Ethoxy-phenyl)-(3-methyl-1H-pyrazolo[4,3-c]pyridin-4-yl)-amine], the half-inhibitory concentration (IC50) lay within 0.1 to 1 µM.

For `CCN(CC)C(=O)CCc1n[nH]c2ccnc(NC3CCCCC3)c12` [Example 181, 3-(4-Cyclohexylamino-1H-pyrazolo[4,3-c]pyridin-3-yl)-N,N-diethyl-propionamide], the IC50 fell in the range of 0.1 to 1 µM.

Regarding `O=C(CCc1n[nH]c2ccnc(NC3CCCCC3)c12)N1CCCC(Cc2ccccc2)C1` (stereo not shown) [Example 194, 1-(3-Benzyl-piperidin-1-yl)-3-(4-cyclohexylamino-1H-pyrazolo[4,3-c]pyridin-3-yl)-propan-1-one], the IC50 was below 0.1 µM.

Take `Cc1n[nH]c2ccnc(Nc3cccc(Cl)c3)c12` [Example 59, (3-Chloro-phenyl)-(3-methyl-1H-pyrazolo[4,3-c]pyridin-4-yl)-amine]: the IC50 was 0.1 to 1 µM.

On to `CN(Cc1ccccc1)C(=O)CCc1n[nH]c2ccnc(NC3CCCCC3)c12` [Example 183, N-Benzyl-3-(4-cyclohexylamino-1H-pyrazolo[4,3-c]pyridin-3-yl)-N-methyl-propionamide], for which the IC50 lay within 0.1 to 1 µM.

With `Cc1n[nH]c2ccnc(NCCc3c[nH]c4ccccc34)c12` [Example 342, [2-(1H-Indol-3-yl)-ethyl]-(3-methyl-1H-pyrazolo[4,3-c]pyridin-4-yl)-amine], the IC50 lay within 1 to 10 µM.

`c1cc2[nH]nc(CCC3CCNCC3)c2c(NC2CCCCC2)n1` [Example 217, Cyclohexyl-[3-(2-piperidin-4-yl-ethyl)-1H-pyrazolo[4,3-c]pyridin-4-yl]-amine]: the IC50 was 1 to 10 µM.

As for `O=C(CCc1n[nH]c2ccnc(NC3CCCCC3)c12)N1CCCCC1c1ccccc1` (stereo not shown) [Example 201, 3-(4-Cyclohexylamino-1H-pyrazolo[4,3-c]pyridin-3-yl)-1-(2-phenyl-piperidin-1-yl)-propan-1-one], the IC50 lay in the range of 0.1 to 1 µM.

Regarding `Cc1n[nH]c2ccnc(NCCC3CCCN3C)c12` (stereo not shown) [Example 25, (3-Methyl-1H-pyrazolo[4,3-c]pyridin-4-yl)-[2-(1-methyl-pyrrolidin-2-yl)-ethyl]-amine], the IC50 is 1 to 10 µM.

As for `Cc1n[nH]c2ccnc(Nc3ccc(C(=O)NC4CCCC4)cc3)c12` [Example 106, N-Cyclopentyl-4-(3-methyl-1H-pyrazolo[4,3-c]pyridin-4-ylamino)-benzamide], the IC50 was in the range of 1 to 10 µM.

As to `Cc1n[nH]c2ccnc(Nc3cncc(-c4ccc(C#N)cc4)c3)c12` [Example 60, 4-[5-(3-Methyl-1H-pyrazolo[4,3-c]pyridin-4-ylamino)-pyridin-3-yl]-benzonitrile], the IC50 was 0.1 to 1 µM.

On to `CCN(CC)C(=O)C1CCCN(C(=O)CCc2n[nH]c3ccnc(NC4CCCCC4)c23)C1` (stereo not shown) [Example 193, 1-[3-(4-Cyclohexylamino-1H-pyrazolo[4,3-c]pyridin-3-yl)-propionyl]-piperidine-3-carboxylic acid diethylamide], for which the IC50 fell in the range of 0.1 to 1 µM.

Turning to `Nc1cccc(CCc2n[nH]c3ccnc(NC4CCCCC4)c23)c1` [Example 221, {3-[2-(3-Amino-phenyl)-ethyl]-1H-pyrazolo[4,3-c]pyridin-4-yl}-cyclohexyl-amine], the IC50 was below 0.1 µM.

`Cc1n[nH]c2ccnc(NC(C)CC(C)C)c12` (stereo not shown) [Example 45, (1,3-Dimethyl-butyl)-(3-methyl-1H-pyrazolo[4,3-c]pyridin-4-yl)-amine]: the IC50 was in the range of 1 to 10 µM.

Regarding `CC(=O)N1CCC(Nc2nccc3[nH]nc(C)c23)CC1` [Example 101, 1-[4-(3-Methyl-1H-pyrazolo[4,3-c]pyridin-4-ylamino)-piperidin-1-yl]-ethanone], the IC50 lay in the range of 0.1 to 1 µM.

Regarding `O=C(CCc1n[nH]c2ccnc(NC3CCCCC3)c12)NCC1CCOCC1` [Example 185, 3-(4-Cyclohexylamino-1H-pyrazolo[4,3-c]pyridin-3-yl)-N-(tetrahydro-pyran-4-ylmethyl)-propionamide], the IC50 fell in the range of 1 to 10 µM.

For `Cc1n[nH]c2ccnc(NCCCn3cccn3)c12` [Example 345, (3-Methyl-1H-pyrazolo[4,3-c]pyridin-4-yl)-(3-pyrazol-1-yl-propyl)-amine], the IC50 lay in the range of 1 to 10 µM.

Consider `Cc1n[nH]c2ccnc(N[C@H]3CC[C@H](C)CC3)c12` [Example 34, Trans-(4-Methyl-cyclohexyl)-(3-methyl-1H-pyrazolo[4,3-c]pyridin-4-yl)-amine], for which the IC50 was 0.1 to 1 µM.

For the compound `Cn1nccc1NC(=O)c1ccc(CCc2n[nH]c3ccnc(NC4CCCCC4)c23)cc1` [Example 252, 4-[2-(4-Cyclohexylamino-1H-pyrazolo[4,3-c]pyridin-3-yl)-ethyl]-N-(2-methyl-2H-pyrazol-3-yl)-benzamide], the IC50 is 0.1 to 1 µM.

In the case of `Cc1n[nH]c2ccnc(NCCc3ccc(Cl)cc3)c12` [Example 329, [2-(4-Chloro-phenyl)-ethyl]-(3-methyl-1H-pyrazolo[4,3-c]pyridin-4-yl)-amine], the IC50 was in the range of 0.1 to 1 µM.

Take `Cc1n[nH]c2ccnc(N(C)C3CCCCC3)c12` [Example 35, Cyclohexyl-methyl-(3-methyl-1H-pyrazolo[4,3-c]pyridin-4-yl)-amine]: the IC50 fell in the range of 1 to 10 µM.

On to `CN1CCOc2cc(-c3n[nH]c4ccnc(NC5CCCCC5)c34)ccc21` [Example 161, Cyclohexyl-[3-(4-methyl-3,4-dihydro-2H-1,4-benzoxazin-7-yl)-1H-pyrazolo[4,3-c]pyridin-4-yl]-amine], for which the IC50 is 0.1 to 1 µM.

For `Cc1n[nH]c2ccnc(Nc3cc(F)ccc3F)c12` [Example 308, (2,5-Difluoro-phenyl)-(3-methyl-1H-pyrazolo[4,3-c]pyridin-4-yl)-amine], the IC50 was 0.1 to 1 µM.

Take `CC[C@H](C)Nc1nccc2[nH]nc(C)c12` [Example 44]: the IC50 fell in the range of 0.1 to 1 µM.

Consider `Cc1n[nH]c2ccnc(NCc3ccc(C(F)(F)F)cc3)c12` [Example 326, (3-Methyl-1H-pyrazolo[4,3-c]pyridin-4-yl)-4-(4-trifluoromethyl-benzyl)-amine], for which the IC50 fell in the range of 1 to 10 µM.

With `COc1ccc(C(=O)N2CCC(Nc3nccc4[nH]nc(C)c34)CC2)cc1` [Example 105, (4-Methoxy-phenyl)-[4-(3-methyl-1H-pyrazolo[4,3-c]pyridin-4-ylamino)-piperidin-1-yl]-methanone], the IC50 was in the range of 1 to 10 µM.

For `Cc1n[nH]c2ccnc(-c3ccco3)c12` [Example 48, 4-Furan-2-yl-3-methyl-1H-pyrazolo[4,3-c]pyridine], the IC50 is 0.1 to 1 µM.

Consider `Cc1n[nH]c2ccnc(N[C@H](C)C(C)C)c12` [Example 39, ((R)-1,2-Dimethyl-propyl)-(3-methyl-1H-pyrazolo[4,3-c]pyridin-4-yl)-amine], for which the IC50 was in the range of 0.1 to 1 µM.

For `O=C(CCc1n[nH]c2ccnc(NC3CCCCC3)c12)N1CCCC1` [Example 173, 3-(4-Cyclohexylamino-1H-pyrazolo[4,3-c]pyridin-3-yl)-1-pyrrolidin-1-yl-propan-1-one], the IC50 was 0.1 to 1 µM.

For `Cc1n[nH]c2ccnc(-c3ccc(CNS(C)(=O)=O)cc3)c12` [Example 55, N-[4-(3-Methyl-1H-pyrazolo[4,3-c]pyridin-4-yl)-benzyl]-methane-sulfonamide], the IC50 fell in the range of 0.1 to 1 µM.

With `c1ccc2c(-c3n[nH]c4ccnc(NC5CCCCC5)c34)cncc2c1` [Example 164, Cyclohexyl-(3-isoquinolin-4-yl-1H-pyrazolo[4,3-c]pyridin-4-yl)-amine], the IC50 lay within 1 to 10 µM.

For the compound `Cc1n[nH]c2ccnc(NCC3CCCO3)c12` (stereo not shown) [Example 304, (3-Methyl-1H-pyrazolo[4,3-c]pyridin-4-yl)-(tetrahydro-furan-2-ylmethyl)-amine], the IC50 was 1 to 10 µM.
